{"source": "paper PMC12615753", "about": "“Glutathione as a taste modulator: molecular mechanisms of interaction with umami and sweet taste receptors” (Food Chemistry: Molecular Sciences, 2025)", "target": "T1, hTAS1R1 H71S/rTAS1R3 (Homo sapiens, UniProt Q7RTX1, H71S)", "T1 construct": "UniProtKB number Q7RTX1–1); expressed in transfected cells; host or cells: HEK293T/17 (ATCC CRL-11268)", "T1 sequence (Q7RTX1 21-841 H71S)": "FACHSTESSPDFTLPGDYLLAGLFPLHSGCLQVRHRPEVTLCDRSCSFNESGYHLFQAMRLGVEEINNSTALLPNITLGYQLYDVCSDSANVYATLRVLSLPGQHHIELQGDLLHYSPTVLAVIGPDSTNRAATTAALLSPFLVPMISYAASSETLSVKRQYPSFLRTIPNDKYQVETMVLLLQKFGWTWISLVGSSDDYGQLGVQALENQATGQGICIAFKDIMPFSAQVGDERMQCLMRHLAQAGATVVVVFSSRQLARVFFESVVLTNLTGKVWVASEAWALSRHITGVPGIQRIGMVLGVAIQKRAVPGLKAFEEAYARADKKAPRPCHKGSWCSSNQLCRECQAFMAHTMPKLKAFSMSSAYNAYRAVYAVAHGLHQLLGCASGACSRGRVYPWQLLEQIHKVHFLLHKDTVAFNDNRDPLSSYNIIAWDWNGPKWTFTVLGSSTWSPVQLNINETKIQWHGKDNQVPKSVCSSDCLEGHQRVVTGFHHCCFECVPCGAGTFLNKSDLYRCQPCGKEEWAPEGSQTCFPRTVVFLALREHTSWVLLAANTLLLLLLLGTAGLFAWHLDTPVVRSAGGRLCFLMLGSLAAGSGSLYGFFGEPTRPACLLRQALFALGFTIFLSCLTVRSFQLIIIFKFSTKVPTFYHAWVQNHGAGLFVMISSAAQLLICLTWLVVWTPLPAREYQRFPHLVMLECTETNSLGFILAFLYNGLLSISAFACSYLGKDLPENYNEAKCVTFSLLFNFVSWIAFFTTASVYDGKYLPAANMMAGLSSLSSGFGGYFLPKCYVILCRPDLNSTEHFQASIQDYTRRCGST", "T1 sequence (Q923K1 21-858 partner)": "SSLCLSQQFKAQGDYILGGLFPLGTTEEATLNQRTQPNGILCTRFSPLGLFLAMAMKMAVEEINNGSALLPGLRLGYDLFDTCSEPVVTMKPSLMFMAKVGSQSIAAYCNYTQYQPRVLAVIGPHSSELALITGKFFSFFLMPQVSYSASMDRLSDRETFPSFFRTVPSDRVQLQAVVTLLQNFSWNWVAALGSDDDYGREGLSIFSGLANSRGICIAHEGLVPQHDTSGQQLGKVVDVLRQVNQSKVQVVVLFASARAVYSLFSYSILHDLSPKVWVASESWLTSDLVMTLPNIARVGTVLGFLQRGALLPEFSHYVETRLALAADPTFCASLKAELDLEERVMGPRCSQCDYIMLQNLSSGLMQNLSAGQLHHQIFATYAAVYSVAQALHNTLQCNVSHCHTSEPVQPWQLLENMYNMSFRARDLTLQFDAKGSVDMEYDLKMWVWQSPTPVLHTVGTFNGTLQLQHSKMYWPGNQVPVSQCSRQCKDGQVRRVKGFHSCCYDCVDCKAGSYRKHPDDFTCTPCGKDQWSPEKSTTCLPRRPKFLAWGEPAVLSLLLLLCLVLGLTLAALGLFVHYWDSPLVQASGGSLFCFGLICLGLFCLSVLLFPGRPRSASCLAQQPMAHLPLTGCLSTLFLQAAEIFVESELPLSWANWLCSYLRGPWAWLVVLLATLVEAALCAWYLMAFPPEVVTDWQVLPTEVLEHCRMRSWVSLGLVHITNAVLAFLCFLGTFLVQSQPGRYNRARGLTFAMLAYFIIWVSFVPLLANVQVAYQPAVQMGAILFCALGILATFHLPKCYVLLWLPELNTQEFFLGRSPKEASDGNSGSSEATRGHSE", "test": "Calcium assay, hTAS1R1 mutant co-expressed with rTAS1R3", "format": "cell-based, rat", "conditions": "for response to the agonist alone, vs WT: H71S", "description": "Chimeric Gα proteins, such as Gα16Gust44, Gα16Gi3 or Gα15i2, are widely used in the functional expression of TAS1R receptors ([Backes et al., 2015]; [Suess et al., 2015]; [Toda et al., 2021], [Toda et al., 2013], [Toda et al., 2018]; [Zhang et al., 2008]). Chimeric Gα15i2 (([Toda et al., 2013]), Supplementary data) was generated by replacing the last five residues of the C-terminal tail of rat Gα15i2 (EINLL) (UniProt number G3V6N8; https://www.uniprot.org/uniprot/) with the counterpart sequence from human GNAI2 (DCGLF) (UniProt number P04899-1) and cloning into the pcDNA3.1/Hygro vector (Invitrogen, Thermo Fisher Scientific, Illkirch, France) between the HindIII and NotI restriction sites, resulting in the plasmid pcDNA3.1-Gα15i2. Chimeric Gα16Gust44 construct have already been reported ([Raliou et al., 2011]). Briefly, Gα16Gust44 was generated by replacing the C-terminal of Gα16 with the C-terminal 44 residues of gustducin. As previously described, hTAS1R1 was amplified from human fungiform papillae cDNA and cloned and inserted into pcDNA3 (Invitrogen), generating pcDNA3-TAS1R1-WT (wild-type) ([Raliou et al., 2011]). […] The cDNA coding region of rTAS1R3 was synthesized with optimized-codon usage for human expression (Genewiz) and was cloned and inserted into the mammalian pcDNA4/myc-HisA (Invitrogen) expression vector between the EcoRI and NotI restriction sites, resulting in the plasmid pcDNA4-rTAS1R3. […] The sequence integrity of all the plasmid constructs was verified via automated DNA sequencing (Genewiz).\nThe hTAS1R1 mutants were co-expressed with the rTAS1R3 subunit in HEK293 cells. […] As a control, the functionality of the mutated receptors was checked after stimulation with S807 (Fig. S8), which interacts with TAS1R1-TMD ([Zhang et al., 2008]).", "note": "Entries after “also recorded” stand apart in the source; their conditions may differ."}
{"smiles": "CCCC(CCC)NC(=O)c1ccc2c(c1)OCO2", "note": "[S807, N-(heptan-4-yl)benzo[d][1,3]dioxole-5-carboxamide, reference compound]", "values": [{"measurement": "response to the agonist alone, vs WT", "value": "unaffected"}]}
{"smiles": "N[C@@H](CCC(=O)O)C(=O)O", "note": "[L-Glu, L-glutamic acid, reference compound]", "values": [{"measurement": "response to the agonist alone, vs WT", "value": "completely suppressed; also recorded: completely abolished"}]}
{"smiles": "N[C@@H](CCC(=O)N[C@@H](CS)C(=O)NCC(=O)O)C(=O)O", "note": "[GSH, γ-L-glutamyl-L-cysteinyl-glycine]", "values": [{"measurement": "EC50", "value": "> 30", "unit": "mM"}, {"measurement": "response to the agonist alone, vs WT", "value": "fully abolished; also recorded: completely abolished"}]}
